# Structures can show the parent of a compound that is named as a salt. Where two headings read alike, the source gives them in different places.
# System: HMC-1-8
# Assay: Anti-proliferative effect in HMC-1-8 cells, CellTiter-Glo (Assay 7)
# Assay type: cell-based
# Experimental: Assessment of the Anti-Proliferative Effect of Compounds in Different Cell Lines
# The impact of compounds on the proliferation of different cell lines was assessed using the CellTiter-Glo® Luminescent Cell Viability reagent from Promega (G7573).
# In parallel, cells were plated in a reference (day 0) plate for time zero determination. Cells were incubated in a humidified incubator at 37° C. overnight.
# Rim wells were excluded. The cells were incubated for 72 hours in a humidified incubator at 37° C. The day 0 plate was measured by adding 30 μL/well of CTG solution (CellTiter-Glo® Luminescent Cell Viability reagent, Promega G7573) to time zero wells in the reference plate followed by a 10 minutes incubation and luminescence reading at 0.1 ms. using the PHERAstar FS microplate reader (BMG Labtech).
# After 72 hours incubation, the treated plates were measured in the same way as the day 0 plate mentioned above. The Bella DRC Master Sheet was used to calculate IC50s, with CI=day 0 values and C0=DMSO control values.
# [1] = read-out: Antiproli HMC-1-8, HMC-1-8, 72 hours incubation
SMILES,IC50 [1],"IC50 (HMC-1-8, 72 hours incubation, read-out: Antiproli HMC-1-8)"
"CCc1c2c(nn1C)COCc1ccccc1Cn1c(C(=O)O)c(CCCOc3cccc4cc(F)ccc34)c3ccc(Cl)c-2c31 (single isomer, unassigned; enantiomer 1) [Example 55, (−)-3-Chloro-4-ethyl-17-{3-[(6-fluoronaphthalen-1-yl)oxy]propyl}-5-methyl-5,7,9,14-tetrahydro-indolo[7,1-fg]pyrazolo[3,4-d][2,8]benzoxazacycloundecine-16-carboxylic Acid N-ethylethanamine Salt (Enantiomer 1)]",2.39 µM,
"CCc1nn(C)c2c1-c1c(Cl)ccc3c(CCCOc4cccc5cc(F)ccc45)c(C(=O)O)n(c13)Cc1ccccc1COC2 (single isomer, unassigned; enantiomer 1) [Example 58, (+)-3-Chloro-4-ethyl-17-{3-[(6-fluoronaphthalen-1-yl)oxy]propyl}-6-methyl-6,7,9,14-tetrahydro-indolo[7,1-fg]pyrazolo[3,4-d][2,8]benzoxazacycloundecine-16-carboxylic acid-N-ethylethanamine Salt (Enantiomer 1)]",,3.87 µM
"CCc1c2c(nn1C)COCc1ccccc1Cn1c(C(=O)O)c(CCCOc3cccc4cc(F)ccc34)c3ccc(Cl)c-2c31 (single isomer, unassigned; enantiomer 2) [Example 56, (+)-3-Chloro-4-ethyl-17-{3-[(6-fluoronaphthalen-1-yl)oxy]propyl}-5-methyl-5,7,9,14-tetrahydro-indolo[7,1-fg]pyrazolo[3,4-d][2,8]benzoxazacycloundecine-16-carboxylic Acid N-ethylethanamine Salt (Enantiomer 2)]",10.9 µM,
